Experimental findings from ChEMBL document CHEMBL1201862, “PubChem BioAssay data set” (2004) are described below.

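Test compounds were applied to cells in 96-well plates for 48 hours at 5 doses. GI50 = concentration required for 50% inhibition of growth.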 Activity calls are given as the source filed them. Rule as the data show it: active = GI50 up to about 1.1 µM and inactive = higher. A value given as a limit tells only on which side of the number the result lay.

Test systems include SW-620; OVCAR-5; UACC-62; HOP-92; TK-10; NCI/ADR-RES; SK-MEL-28; UO-31; NCI-H460; K562; DU-145; BT-549; HCC 2998; HL-60; COLO 205; LOX IMVI; OVCAR-4; RPMI-8226.
What all share (test): DTP human tumour cell line panel, 48 h

Regarding `COc1ccc(C[n+]2cccc(O)c2)cc1`, the GI50 in the assay with SW-620, in the assay on OVCAR-5, with UACC-62, with HOP-92, with TK-10 and with NCI/ADR-RES was > 100 µM (inactive) each time. For the same molecule, the GI50 in the assay on SK-MEL-28, with UO-31, in the assay with NCI-H460, in the assay on K562, in the assay on DU-145 and in the assay with BT-549 was > 100 µM (inactive) throughout. The GI50 in the assay on HCC 2998 and in the assay with HL-60 was > 100 µM (inactive) each time.

Regarding `C=CC(=O)N1C/C(=C\c2ccc(N(C)C)cc2)C(=O)/C(=C/c2ccc(N(C)C)cc2)C1`, the GI50 is 40.8 µM (inactive) in the assay on SW-620; > 100 µM (inactive) in the assay with OVCAR-5; 44.3 µM (inactive) with UACC-62; > 100 µM (inactive) in the assay on HOP-92; > 100 µM (inactive) in the assay with TK-10; > 100 µM (inactive) in the assay with NCI/ADR-RES. Besides, the GI50 is > 100 µM (inactive) with SK-MEL-28; > 100 µM (inactive) in the assay on UO-31; > 100 µM (inactive) in the assay on COLO 205; > 100 µM (inactive) in the assay with NCI-H460; 11.2 µM (inactive) in the assay with LOX IMVI; 8.97 µM (inactive) with K562. Further, the GI50 was > 100 µM (inactive) in the assay with DU-145, > 100 µM (inactive) in the assay with OVCAR-4, 73.5 µM (inactive) with BT-549 and > 100 µM (inactive) in the assay with HCC 2998.

Regarding `CC1=CC2=C(C(N)=O)C(=O)OC2(C)C(c2ccccc2)C1` (centres undefined), the GI50 in the assay with SW-620, in the assay with OVCAR-5, with UACC-62, in the assay with HOP-92, with TK-10 and in the assay on NCI/ADR-RES was > 100 µM (inactive) each time. For the same molecule, the GI50 with SK-MEL-28, in the assay on UO-31, in the assay on NCI-H460, in the assay with LOX IMVI, in the assay with K562 and with RPMI-8226 was > 100 µM (inactive) in each case. The GI50 with DU-145, with OVCAR-4, with BT-549 and in the assay on HL-60 was > 100 µM (inactive) each time.

Take `COc1c(O)cc2c(c1O)C(=O)C(Cc1ccc(O)cc1)CO2` (centres undefined): the GI50 in the assay on SW-620 is > 100 µM (inactive); with OVCAR-5, > 100 µM (inactive); in the assay on UACC-62, 99.8 µM (inactive); in the assay on HOP-92, 68.2 µM (inactive); with TK-10, > 100 µM (inactive); in the assay with NCI/ADR-RES, 32.7 µM (inactive). Moreover, the GI50 is 59.7 µM (inactive) in the assay with SK-MEL-28; > 100 µM (inactive) with UO-31; > 100 µM (inactive) in the assay with COLO 205; 44.6 µM (inactive) with NCI-H460; > 100 µM (inactive) with LOX IMVI; 22.8 µM (inactive) in the assay with K562. The GI50 in the assay on RPMI-8226 is 25.7 µM (inactive); in the assay with DU-145 it was > 100 µM (inactive); in the assay on OVCAR-4, 40.3 µM (inactive); in the assay with BT-549, 46.7 µM (inactive); in the assay with HL-60, 28.1 µM (inactive).

`CC(=O)c1c(C)n(C)c2c1nnc1ccccc12`: the GI50 with SW-620 is 44.5 µM (inactive); with UACC-62 it was 23.1 µM (inactive); with HOP-92 it was 43.9 µM (inactive); with TK-10 it was 29.4 µM (inactive); in the assay with NCI/ADR-RES, 46.5 µM (inactive); in the assay with SK-MEL-28, > 100 µM (inactive). The GI50 was 3.15 µM (inactive) in the assay on UO-31; 30.9 µM (inactive) in the assay with COLO 205; 25.7 µM (inactive) in the assay on NCI-H460; 43 µM (inactive) in the assay on LOX IMVI; 38.6 µM (inactive) with RPMI-8226; 80.5 µM (inactive) in the assay on DU-145. For the same molecule, the GI50 in the assay with OVCAR-4 is > 100 µM (inactive); with BT-549 it was 71.3 µM (inactive); in the assay on HCC 2998, 85.5 µM (inactive).

Turning to `O=c1n(CCCN2CCOCC2)nc2n1-c1ccc3ccccc3c1SC2`, the GI50 in the assay on SW-620 is 37.5 µM (inactive); with OVCAR-5, 66.7 µM (inactive); with UACC-62, 21.4 µM (inactive); in the assay with HOP-92, > 100 µM (inactive); with TK-10 it was 84.1 µM (inactive); in the assay on NCI/ADR-RES, 67.5 µM (inactive). Moreover, the GI50 is 36.5 µM (inactive) in the assay on SK-MEL-28; 20.6 µM (inactive) in the assay with UO-31; 1.43 µM (inactive) in the assay with COLO 205; 30.2 µM (inactive) in the assay with NCI-H460; 26.9 µM (inactive) in the assay with LOX IMVI; 67.1 µM (inactive) in the assay on K562. For the same molecule, the GI50 in the assay with RPMI-8226 was 45.2 µM (inactive); in the assay on DU-145, 87.9 µM (inactive); with OVCAR-4, 56.9 µM (inactive); in the assay with BT-549, 30.7 µM (inactive); in the assay with HL-60, 31.1 µM (inactive).

For `COc1ccc(C(CC(=O)C(C)(C)CN2CCCCC2)SCCS(=O)(=O)O)cc1` (centres undefined), the GI50 in the assay with SW-620 was 32.6 µM (inactive); in the assay with OVCAR-5, 21.3 µM (inactive); in the assay with UACC-62, 37.3 µM (inactive); in the assay with HOP-92 it was 17.8 µM (inactive); in the assay on TK-10, 45.7 µM (inactive); in the assay with NCI/ADR-RES, 35.4 µM (inactive). Moreover, the GI50 is 37.4 µM (inactive) in the assay with UO-31; 28.4 µM (inactive) in the assay with COLO 205; 22.6 µM (inactive) in the assay on NCI-H460; 22.9 µM (inactive) in the assay on K562; 24.9 µM (inactive) in the assay on RPMI-8226; 66.1 µM (inactive) with DU-145. Moreover, the GI50 in the assay with OVCAR-4 is 34 µM (inactive); in the assay with BT-549, 45.7 µM (inactive); in the assay on HCC 2998 it was 67.3 µM (inactive); with HL-60, 41.4 µM (inactive).

Consider `CNC/C(Cl)=N/S(=O)(=O)c1ccc(C)cc1`, for which the GI50 with SW-620 was 9.16 µM (inactive); in the assay on OVCAR-5 it was 21 µM (inactive); in the assay with UACC-62, 9.64 µM (inactive); with HOP-92, 14.8 µM (inactive); with TK-10, 12.7 µM (inactive); with NCI/ADR-RES, 26.1 µM (inactive). For the same molecule, the GI50 in the assay on SK-MEL-28 was 31.6 µM (inactive); in the assay with UO-31 it was 12.1 µM (inactive); in the assay with COLO 205, 17.5 µM (inactive); with NCI-H460, 8.17 µM (inactive); in the assay on LOX IMVI, 7.16 µM (inactive); with K562, 36.1 µM (inactive). Further, the GI50 was 6.61 µM (inactive) in the assay with RPMI-8226; 5.07 µM (inactive) in the assay on DU-145; 10 µM (inactive) with OVCAR-4; 16.3 µM (inactive) in the assay with BT-549; 4.74 µM (inactive) in the assay with HCC 2998.

Turning to `O=C1/C(=C\c2ccccc2)C(NC2CCCCC2)c2ccccc21` (centres undefined), the GI50 was 0.444 µM (active) with SW-620; 4.17 µM (inactive) in the assay on OVCAR-5; 2.38 µM (inactive) in the assay on UACC-62; 1.96 µM (inactive) in the assay on HOP-92; 1.29 µM (inactive) in the assay with TK-10; 3.65 µM (inactive) in the assay with NCI/ADR-RES. Also, the GI50 with SK-MEL-28 was 2.54 µM (inactive); in the assay with UO-31, 1.1 µM (active); in the assay on COLO 205, 1.55 µM (inactive); with NCI-H460 it was 2.71 µM (inactive); with LOX IMVI, 1.66 µM (inactive); in the assay with K562 it was 0.46 µM (active). Besides, the 50% growth inhibitory concentration (GI50) was 0.387 µM (active) with RPMI-8226; 1.53 µM (inactive) in the assay on DU-145; 1.79 µM (inactive) in the assay with OVCAR-4; 2.36 µM (inactive) with BT-549; 0.883 µM (active) in the assay with HL-60.

Consider `O=C1c2ccc3ccccc3c2CCC1N1CCCCC1` (centres undefined), for which the GI50 is 17.6 µM (inactive) with SW-620; 19.7 µM (inactive) in the assay on OVCAR-5; 16.7 µM (inactive) with UACC-62; 16.6 µM (inactive) in the assay with HOP-92; 16.1 µM (inactive) with TK-10; 20.7 µM (inactive) in the assay with NCI/ADR-RES. For the same molecule, the GI50 in the assay on SK-MEL-28 is 18.1 µM (inactive); with UO-31, 15.6 µM (inactive); in the assay on COLO 205 it was 19.5 µM (inactive); in the assay on NCI-H460, 22 µM (inactive); in the assay with LOX IMVI, 19.2 µM (inactive); with K562 it was 17.6 µM (inactive). The GI50 in the assay with DU-145 was 16.7 µM (inactive); in the assay on OVCAR-4 it was 16.6 µM (inactive); in the assay on BT-549, 23.3 µM (inactive); in the assay on HL-60, 21.9 µM (inactive).

As to `O=c1c(=O)c2cscc2c1=O`, the GI50 in the assay on SW-620 is 0.989 µM (active); in the assay with OVCAR-5, 4.74 µM (inactive); with UACC-62 it was 4.73 µM (inactive); with HOP-92, 5.47 µM (inactive); in the assay with TK-10, 4.56 µM (inactive); in the assay on NCI/ADR-RES, 8 µM (inactive). Moreover, the GI50 in the assay with SK-MEL-28 is 4.53 µM (inactive); in the assay with UO-31 it was 4.75 µM (inactive); with COLO 205, 4.73 µM (inactive); in the assay on NCI-H460 it was 7.76 µM (inactive); with LOX IMVI, 4.92 µM (inactive); in the assay on K562, 0.0955 µM (active). Besides, the GI50 with RPMI-8226 is 6.47 µM (inactive); with DU-145, 5.33 µM (inactive); in the assay with OVCAR-4, 4.99 µM (inactive); with BT-549 it was 4.85 µM (inactive); with HCC 2998, 2.92 µM (inactive).

For `Cc1cc(C)nc(NS(=O)(=O)c2ccc(NC(=O)c3cc([N+](=O)[O-])cc([N+](=O)[O-])c3)cc2)n1`, the GI50 in the assay on SW-620 is > 100 µM (inactive); in the assay on UACC-62, 77.3 µM (inactive); in the assay with HOP-92, 42.5 µM (inactive); in the assay on TK-10, > 100 µM (inactive); with NCI/ADR-RES it was > 100 µM (inactive); in the assay on SK-MEL-28, 99.8 µM (inactive). For the same molecule, the GI50 with UO-31 is > 100 µM (inactive); in the assay on COLO 205 it was 18.3 µM (inactive); in the assay with NCI-H460, 86.7 µM (inactive); in the assay on LOX IMVI, 26.8 µM (inactive); with K562, 60.7 µM (inactive); with RPMI-8226 it was 57.5 µM (inactive). Further, the GI50 in the assay with DU-145 is > 100 µM (inactive); in the assay on OVCAR-4, 22.9 µM (inactive); with BT-549 it was > 100 µM (inactive); in the assay on HL-60, 30.1 µM (inactive).

As a reminder, the GI50 is the concentration at which growth is held to half of that of the control.
